Test results from ChEMBL document CHEMBL1201862, “PubChem BioAssay data set” (2004).
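All cell lines were grown in 96-well plates and treated with compound for 48 hours. GI50 marks 50% less growth.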 The source made the active and inactive calls. Cut-off read from the data, not from the text of the source: active = GI50 up to about 1.1 µM and inactive = higher.

Columns and labels:
Assay in all cases: NCI tumour cell line growth inhibition, 48 h
[1] = test system: UACC-257
[2] = test system: CAKI-1
[3] = test system: 786-0
[4] = test system: SW-620
[5] = test system: SK-OV-3
[6] = test system: HCT-15
[7] = test system: SF-539
[8] = test system: A549
[9] = test system: UO-31
[10] = test system: A498
[11] = test system: SNB-19
[12] = test system: KM12
[13] = test system: SK-MEL-5
[14] = test system: DMS-114
[15] = test system: NCI-H522
[16] = test system: SF-295
[17] = test system: U-251

Measured: GI50

CCCCCCCC(=O)OCC1OC(OC)C(NC(=O)N(CCCl)N=O)C(O)C1O (stereo not given)
inactive: [1] 16.1 µM | [2] 9.08 µM | [3] 3.92 µM | [4] 4.17 µM | [5] 28.5 µM | [7] 2.64 µM | [8] 9.91 µM | [9] 17.6 µM | [10] 21.5 µM | [11] 14.5 µM | [12] 9.89 µM | [13] 15.1 µM | [14] 11.9 µM | [15] 11.2 µM | [16] 4.07 µM | [17] 4.91 µM
3.27 µM: [6]

CCOC(=O)C12CCCC1(O)N(NC(N)=O)C(C)=C2C(=O)OC (stereo not given)
> 100 µM: [6]
inactive: [1] > 100 µM | [2] > 100 µM | [3] > 100 µM | [4] > 100 µM | [5] > 100 µM | [7] > 100 µM | [8] > 100 µM | [9] > 100 µM | [10] > 100 µM | [11] > 100 µM | [12] > 100 µM | [14] > 100 µM | [15] > 100 µM | [16] > 100 µM | [17] > 100 µM

CCOC(=O)NC/C=C/COC1CCCCO1 (stereo not given)
> 100 µM: [6]
inactive: [1] > 100 µM | [2] > 100 µM | [3] > 100 µM | [4] > 100 µM | [5] > 100 µM | [7] > 100 µM | [8] > 100 µM | [9] > 100 µM | [10] > 100 µM | [11] > 100 µM | [12] > 100 µM | [13] > 100 µM | [14] > 100 µM | [15] > 100 µM | [17] > 100 µM

COC(=O)c1ccc(C=C(C#N)C#N)cc1
inactive: [2] 30.7 µM | [3] 16.9 µM | [4] 21.3 µM | [5] > 100 µM | [7] 19.5 µM | [8] > 100 µM | [10] > 100 µM | [11] 38.5 µM | [12] 31.6 µM | [13] 17.9 µM | [14] 19.2 µM | [15] 13.7 µM | [16] 32.4 µM | [17] 24.4 µM
35 µM: [6]

COC(=O)c1cc2c(=O)n(C)c3ccccc3n2c1C(=O)OC
80.2 µM: [6]
inactive: [1] > 100 µM | [2] 73.5 µM | [3] 22.8 µM | [4] 64.9 µM | [5] 28.1 µM | [7] 26.1 µM | [8] 66.4 µM | [9] 63.1 µM | [10] 27.2 µM | [11] 34.7 µM | [12] 63.1 µM | [13] > 100 µM | [14] > 100 µM | [15] 20 µM | [16] 34.3 µM | [17] 24.1 µM

Nc1ccccc1C(=O)/C=C/c1c(O)ccc2ccccc12
inactive: [1] > 100 µM | [2] > 100 µM | [3] > 100 µM | [4] > 100 µM | [5] > 100 µM | [7] > 100 µM | [8] > 100 µM | [9] > 100 µM | [10] > 100 µM | [11] > 100 µM | [12] > 100 µM | [13] > 100 µM | [14] > 100 µM | [15] > 100 µM | [16] > 100 µM | [17] > 100 µM
> 100 µM: [6]

C=CCC12CCC(=O)[C@@]1(C)CC=C(O)C2=O (stereo not given in full)
inactive: [1] > 100 µM | [2] > 100 µM | [3] > 100 µM | [4] > 100 µM | [5] > 100 µM | [7] > 100 µM | [8] > 100 µM | [9] > 100 µM | [10] > 100 µM | [11] > 100 µM | [12] > 100 µM | [13] > 100 µM | [14] > 100 µM | [15] > 100 µM | [16] > 100 µM | [17] > 100 µM
> 100 µM: [6]
